In US20110039901A1, “PROCESS FOR PREPARING A CRYSTALLINE FORM COMPOUND OF 3-BENZYL-2-METHYL-2,3,3a,4,5,6,7,7a-OCTAHYDROBENZO[d]ISOXAZOL-4-ONE” (Abiogen Pharma S.P.A., priority 2008, published 2011):

Assay: stability of the hydrochloride salt at elevated temperature
Type: physicochemical
Details: at temperatures above 30° C.

Compound: CN1OC2CCCC(=O)C2C1Cc1ccccc1.Cl (stereo not shown) [hydrochloride salt of BTG 1640]
- stability at temperature: unstable
